Source: ChEMBL document CHEMBL1201862, “PubChem BioAssay data set” (2004)
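Cells were grown in 96-well plates and exposed to each compound for 48 hours at five concentrations; endpoints were interpolated linearly between bracketing concentrations, or set to the highest concentration if not reached. Here, GI50 denotes the concentration required for 50% inhibition of growth.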 Calls of active or inactive are those of the source. Cut-off read from the data, not from the text of the source: active = GI50 up to about 1.1 µM and inactive = higher.

Legend:
Assay in all cases: inhibition of tumour cell growth, NCI panel, 48 h
[1] = test system: BT-549
[2] = test system: Malme-3M
[3] = test system: MDA-MB-435
[4] = test system: TK-10
[5] = test system: UACC-62
[6] = test system: HL-60
[7] = test system: RXF 393
[8] = test system: MDA-N
[9] = test system: 786-0
[10] = test system: HOP-62
[11] = test system: SF-295
[12] = test system: M14
[13] = test system: HT-29
[14] = test system: DU-145
[15] = test system: HCC 2998
[16] = test system: MDA-MB-231
[17] = test system: U-251
[18] = test system: MCF7
[19] = test system: ACHN
[20] = test system: SK-OV-3
[21] = test system: OVCAR-3
[22] = test system: Hs-578T
[23] = test system: UACC-257
[24] = test system: NCI-H522
[25] = test system: PC-3
[26] = test system: SK-MEL-5
[27] = test system: RPMI-8226
[28] = test system: MOLT-4
[29] = test system: K562
[30] = test system: NCI/ADR-RES
[31] = test system: SK-MEL-2
[32] = test system: COLO 205
[33] = test system: T47D
[34] = test system: NCI-H460
[35] = test system: A549
[36] = test system: SNB-75
[37] = test system: NCI-H23
[38] = test system: HCT-116
[39] = test system: EKVX
[40] = test system: NCI-H226
[41] = test system: SF-268
[42] = test system: SN12C
[43] = test system: SNB-19
[44] = test system: OVCAR-5
[45] = test system: SK-MEL-28
[46] = test system: IGROV-1
[47] = test system: CCRF-CEM
[48] = test system: UO-31
[49] = test system: OVCAR-4
[50] = test system: KM12
[51] = test system: OVCAR-8
[52] = test system: SW-620
[53] = test system: HCT-15
[54] = test system: A498
[55] = test system: HOP-92
[56] = test system: SF-539
[57] = test system: CAKI-1

SMILES: c1ccc2c(CN3CCC(C4CCN(Cc5cccc6ccccc56)CC4)CC3)cccc2c1
- GI50 [1]: > 56 µM (inactive)
- GI50 [2]: 3.47 µM (inactive)
- GI50 [3]: 3.52 µM (inactive)
- GI50 [4]: 20.1 µM (inactive)
- GI50 [5]: 7.43 µM (inactive)
- GI50 [6]: 3.01 µM (inactive)
- GI50 [7]: 21.8 µM (inactive)
- GI50 [8]: 8.13 µM (inactive)
- GI50 [9]: 16.3 µM (inactive)
- GI50 [10]: 25.4 µM (inactive)
- GI50 [11]: 6.28 µM (inactive)
- GI50 [12]: 1.98 µM (inactive)
- GI50 [13]: 3.28 µM (inactive)
- GI50 [14]: 86.1 µM (inactive)
- GI50 [15]: 1.77 µM (inactive)
- GI50 [16]: 21.4 µM (inactive)
- GI50 [17]: 16.5 µM (inactive)
- GI50 [18]: 26.5 µM (inactive)
- GI50 [19]: 33.3 µM (inactive)
- GI50 [20]: 28 µM (inactive)
- GI50 [21]: > 58.6 µM (inactive)
- GI50 [22]: 32.1 µM (inactive)
- GI50 [23]: 3.48 µM (inactive)
- GI50 [24]: 8.53 µM (inactive)
- GI50 [25]: 32.8 µM (inactive)
- GI50 [26]: 4.89 µM (inactive)
- GI50 [27]: 2.57 µM (inactive)
- GI50 [28]: 5.27 µM (inactive)
- GI50 [29]: 1.6 µM (inactive)
- GI50 [30]: 38.3 µM (inactive)
- GI50 [31]: 8.41 µM (inactive)
- GI50 [32]: 1.77 µM (inactive)
- GI50 [33]: 23.1 µM (inactive)
- GI50 [34]: 16.3 µM (inactive)
- GI50 [35]: 62.7 µM (inactive)

SMILES: N#C/C(=N/Nc1[nH]cnc1C(N)=O)C(=O)Nc1ccccc1
- GI50 [1]: > 100 µM (inactive)
- GI50 [2]: 5.48 µM (inactive)
- GI50 [3]: 22.1 µM (inactive)
- GI50 [4]: 18.5 µM (inactive)
- GI50 [36]: 24.5 µM (inactive)
- GI50 [37]: 56.8 µM (inactive)
- GI50 [38]: 14.3 µM (inactive)
- GI50 [5]: 9.18 µM (inactive)
- GI50 [6]: 28.9 µM (inactive)
- GI50 [7]: 59.4 µM (inactive)
- GI50 [8]: 12.9 µM (inactive)
- GI50 [39]: 65.5 µM (inactive)
- GI50 [40]: 27 µM (inactive)
- GI50 [9]: 22.8 µM (inactive)
- GI50 [10]: 6.18 µM (inactive)
- GI50 [11]: 17.5 µM (inactive)
- GI50 [12]: 4.99 µM (inactive)
- GI50 [41]: 8.17 µM (inactive)
- GI50 [42]: 4.71 µM (inactive)
- GI50 [13]: 48.6 µM (inactive)
- GI50 [43]: > 100 µM (inactive)
- GI50 [14]: 6.3 µM (inactive)
- GI50 [15]: 9.89 µM (inactive)
- GI50 [44]: 34.6 µM (inactive)
- GI50 [16]: 32.3 µM (inactive)
- GI50 [17]: > 100 µM (inactive)
- GI50 [18]: 54 µM (inactive)
- GI50 [19]: 15.2 µM (inactive)
- GI50 [45]: 88.5 µM (inactive)
- GI50 [20]: 4.66 µM (inactive)
- GI50 [21]: 5.41 µM (inactive)
- GI50 [22]: 67.8 µM (inactive)
- GI50 [46]: 4.55 µM (inactive)
- GI50 [47]: 3.23 µM (inactive)
- GI50 [23]: 76.2 µM (inactive)
- GI50 [24]: 7.71 µM (inactive)
- GI50 [25]: 7.89 µM (inactive)
- GI50 [48]: 3.43 µM (inactive)
- GI50 [26]: 58.5 µM (inactive)
- GI50 [27]: 2.16 µM (inactive)
- GI50 [28]: 4.88 µM (inactive)
- GI50 [29]: 1.52 µM (inactive)
- GI50 [49]: 14.6 µM (inactive)
- GI50 [50]: 13.9 µM (inactive)
- GI50 [30]: 3.45 µM (inactive)
- GI50 [31]: 5.27 µM (inactive)
- GI50 [32]: 16.5 µM (inactive)
- GI50 [51]: 3.23 µM (inactive)
- GI50 [33]: 56.6 µM (inactive)
- GI50 [52]: 12.5 µM (inactive)
- GI50 [53]: 35.5 µM
- GI50 [34]: 37.6 µM (inactive)
- GI50 [35]: > 100 µM (inactive)

SMILES: Cc1ccc2c3c4c(ccc13)C(C)(C)OC4=C(C(C)C)C2=O
- GI50 [1]: 26.5 µM (inactive)
- GI50 [2]: 39.3 µM (inactive)
- GI50 [3]: 59.7 µM (inactive)
- GI50 [4]: 67 µM (inactive)
- GI50 [36]: 26.4 µM (inactive)
- GI50 [37]: 70.5 µM (inactive)
- GI50 [38]: 53.1 µM (inactive)
- GI50 [5]: 50.9 µM (inactive)
- GI50 [6]: 16.6 µM (inactive)
- GI50 [7]: 17.4 µM (inactive)
- GI50 [8]: > 100 µM (inactive)
- GI50 [39]: 63.5 µM (inactive)
- GI50 [40]: 5.4 µM (inactive)
- GI50 [9]: 66.7 µM (inactive)
- GI50 [10]: 15.6 µM (inactive)
- GI50 [11]: 88.3 µM (inactive)
- GI50 [12]: 45.1 µM (inactive)
- GI50 [41]: 34.7 µM (inactive)
- GI50 [42]: > 100 µM (inactive)
- GI50 [13]: 13.8 µM (inactive)
- GI50 [43]: > 100 µM (inactive)
- GI50 [14]: > 100 µM (inactive)
- GI50 [15]: 39.8 µM (inactive)
- GI50 [44]: > 100 µM (inactive)
- GI50 [16]: > 100 µM (inactive)
- GI50 [54]: > 100 µM (inactive)
- GI50 [17]: 79.8 µM (inactive)
- GI50 [18]: 44.7 µM (inactive)
- GI50 [55]: 19.5 µM (inactive)
- GI50 [19]: 84.5 µM (inactive)
- GI50 [56]: > 100 µM (inactive)
- GI50 [45]: 91.6 µM (inactive)
- GI50 [20]: > 100 µM (inactive)
- GI50 [21]: 13.8 µM (inactive)
- GI50 [22]: 8.36 µM (inactive)
- GI50 [46]: 55.3 µM (inactive)
- GI50 [47]: 48.4 µM (inactive)
- GI50 [57]: > 100 µM (inactive)
- GI50 [23]: 30.5 µM (inactive)
- GI50 [24]: 26.8 µM (inactive)
- GI50 [25]: 14.5 µM (inactive)
- GI50 [48]: > 100 µM (inactive)
- GI50 [26]: 32.2 µM (inactive)
- GI50 [27]: 43.7 µM (inactive)
- GI50 [28]: 26.4 µM (inactive)
- GI50 [29]: 59.3 µM (inactive)
- GI50 [49]: 65.5 µM (inactive)
- GI50 [50]: 54.3 µM (inactive)
- GI50 [30]: 19.5 µM (inactive)
- GI50 [31]: 17 µM (inactive)
- GI50 [32]: 31.3 µM (inactive)
- GI50 [51]: 44.7 µM (inactive)
- GI50 [33]: 53.5 µM (inactive)
- GI50 [52]: > 100 µM (inactive)
- GI50 [53]: 32.5 µM
- GI50 [34]: 31.8 µM (inactive)
- GI50 [35]: 55.5 µM (inactive)

SMILES: C=CCCC1CCCNC1=S (stereo not given)
- GI50 [1]: > 100 µM (inactive)
- GI50 [3]: > 100 µM (inactive)
- GI50 [4]: > 100 µM (inactive)
- GI50 [36]: > 100 µM (inactive)
- GI50 [37]: > 100 µM (inactive)
- GI50 [38]: > 100 µM (inactive)
- GI50 [5]: > 100 µM (inactive)
- GI50 [7]: > 100 µM (inactive)
- GI50 [8]: > 100 µM (inactive)
- GI50 [39]: > 100 µM (inactive)
- GI50 [40]: > 100 µM (inactive)
- GI50 [9]: > 100 µM (inactive)
- GI50 [10]: > 100 µM (inactive)
- GI50 [11]: > 100 µM (inactive)
- GI50 [12]: > 100 µM (inactive)
- GI50 [41]: > 100 µM (inactive)
- GI50 [42]: > 100 µM (inactive)
- GI50 [13]: > 100 µM (inactive)
- GI50 [43]: > 100 µM (inactive)
- GI50 [14]: > 100 µM (inactive)
- GI50 [15]: > 100 µM (inactive)
- GI50 [44]: > 100 µM (inactive)
- GI50 [16]: > 100 µM (inactive)
- GI50 [54]: > 100 µM (inactive)
- GI50 [17]: > 100 µM (inactive)
- GI50 [18]: > 100 µM (inactive)
- GI50 [55]: > 100 µM (inactive)
- GI50 [19]: > 100 µM (inactive)
- GI50 [56]: > 100 µM (inactive)
- GI50 [45]: > 100 µM (inactive)
- GI50 [20]: > 100 µM (inactive)
- GI50 [22]: > 100 µM (inactive)
- GI50 [46]: > 100 µM (inactive)
- GI50 [57]: > 100 µM (inactive)
- GI50 [23]: > 100 µM (inactive)
- GI50 [24]: > 100 µM (inactive)
- GI50 [25]: > 100 µM (inactive)
- GI50 [48]: > 100 µM (inactive)
- GI50 [26]: > 100 µM (inactive)
- GI50 [27]: > 100 µM (inactive)
- GI50 [29]: > 100 µM (inactive)
- GI50 [49]: > 100 µM (inactive)
- GI50 [31]: > 100 µM (inactive)
- GI50 [32]: > 100 µM (inactive)
- GI50 [51]: > 100 µM (inactive)
- GI50 [33]: > 100 µM (inactive)
- GI50 [52]: > 100 µM (inactive)
- GI50 [53]: > 100 µM
- GI50 [34]: > 100 µM (inactive)
- GI50 [35]: > 100 µM (inactive)
